Results from patent publication US9464128B2, “Site-specific pegylated linear salmon calcitonin analogues” (INSTITUTE OF PHARMACOLOGY AND TOXICOLOGY ACADEMY OF …, priority 2007, dated 2016).

Legend:
rats [1] = experiment: Calcium-reducing activity, subcutaneous injection to abdomens of rats (blood calcium determination); assay type: in vivo, rat
Protocol: The calcium-reducing activity of sCT(L)s and their PEGylated analogues was determined by administering them to abdomens of rats via subcutaneous injection, according to the method described in the literature (cf. Qian Deming, Shen Genquan, Ke Ruolun; Biological Assay of Calcitonin by Blood Calcium Determination in Rats, CHINESE JOURNAL OF PHARMACEUTICAL ANALYSIS, 1994, 14(3): 30-34).
The activity results as determined were listed as follows, while the reference activity of salmon calcitonin being 4500 IU/mg.

female Wistar rats [2] = experiment: Long-acting performance study: bone density of lumbar vertebrae, femur and tibia in castrated rats; assay type: in vivo, rat; details: for Bone density, lumbar vertebrae / Bone density, tibia / Bone density, femur: 12th week, n = 10; for influence on bone density of lumbar vertebrae (in words): 12 weeks, high dose group of compound 12, positive contrast sCT group
Protocol: (§1) 60 female Wistar rats, body weight 250-280 g, 16 weeks aged, were randomly divided into six groups: pseudo-castrated contrast group (10 rats); castrated contrast group (10 rats); calcitonin group (10 rats, twice every week, 0.036 μg/kg body weight/time); a low dose group of compound 12 (10 rats, twice every week, 0.216 μg/kg body weight/time); a high dose group of compound (10 rats, twice every week, 1.08 μg/kg body weight/time); and a high dose group of compound (10 rats, once every week, 1.08 μg/kg body weight/time). In each of the groups, the administration was given subcutaneously. During the experiment, the rats in each of the groups freely fed on standard solid forage and drank water. Except for the high dose group of compound 12 with administration once every week, blood samples were respectively taken from the orbits of the rats in other groups at the 6th week of administration, and subjected to the determination of osteocalcin, serum calcium and alkaline phosphatase (Table 2). At the end of the 12th week of administration, in addition to osteocalcin, serum calcium and alkaline phosphatase (Table 3), the bone densities of lumbar vertebrae, tibia and femur in the rats of each of the groups were determined (Table 4).

female Wistar rats [3] = experiment: Long-acting performance study: bone metabolism (alkaline phosphatase, serum calcium, osteocalcin) in castrated rats; assay type: in vivo, rat; details: for Alkaline phosphatase / Osteocalcin / Serum calcium: n = 10
Protocol: as §1

rats [4] = details: reference standard; cited from earlier work
[5] = kidney homogenate; cited from earlier work
[6] = high dose 1.08 μg/kg s.c. once/week
[7] = high dose 1.08 μg/kg s.c. twice/week
[8] = low dose 0.216 μg/kg s.c. twice/week
[9] = 6th week, high dose 1.08 μg/kg s.c. twice every week
[10] = 6th week, low dose 0.216 μg/kg s.c. twice every week
[11] = 12th week, high dose 1.08 μg/kg s.c. twice every week
[12] = 12th week, low dose 0.216 μg/kg s.c. twice every week
[13] = 6th week, 0.036 μg/kg s.c. twice every week
[14] = 12th week, 0.036 μg/kg s.c. twice every week

For “[D-Ala^1,Cys^7(mPEG5000-MAL),D-Ala^30]sCT [Compound 12]”, the “Activity (calcium-reducing activity)” value (rats [1]) was 1467 IU/mg, the “Bone density, lumbar vertebrae” value (female Wistar rats [2]; [6]) was 0.182 ± 0.014 g/cm^2 and the “Bone density, tibia” value (female Wistar rats [2]; [6]) was 0.251 ± 0.015 g/cm^2. The “Bone density, femur” value (female Wistar rats [2]; [7]) was 0.241 ± 0.017 g/cm^2, the “Bone density, lumbar vertebrae” value (female Wistar rats [2]; [7]) was 0.181 ± 0.018 g/cm^2 and the “Bone density, tibia” value (female Wistar rats [2]; [7]) was 0.256 ± 0.017 g/cm^2. For the same substance, the “Bone density, femur” value (female Wistar rats [2]; [8]) was 0.240 ± 0.028 g/cm^2, the “Bone density, lumbar vertebrae” value (female Wistar rats [2]; [8]) was 0.175 ± 0.021 g/cm^2 and the “Bone density, tibia” value (female Wistar rats [2]; [8]) was 0.245 ± 0.014 g/cm^2. For the same substance, the “influence on bone density of lumbar vertebrae (in words)” value (female Wistar rats [2]) was “increased the bone density of lumbar vertebrae”, the Alkaline phosphatase (female Wistar rats [3]; [9]) was 180.0 ± 19.4 u/100 ml and the Osteocalcin (female Wistar rats [3]; [9]) was 3.81 ± 0.24 ng/100 ml. The Serum calcium (female Wistar rats [3]; [9]) was 9.2 ± 0.2 mg/100 ml, the Alkaline phosphatase (female Wistar rats [3]; [10]) was 187.0 ± 30.4 u/100 ml and the Osteocalcin (female Wistar rats [3]; [10]) was 3.77 ± 0.25 ng/100 ml. It also gave a Serum calcium (female Wistar rats [3]; [10]) of 9.8 ± 0.3 mg/100 ml, an Alkaline phosphatase (female Wistar rats [3]; [11]) of 188.2 ± 51.2 u/100 ml and an Osteocalcin (female Wistar rats [3]; [11]) of 3.95 ± 0.24 ng/100 ml. It also gave a Serum calcium (female Wistar rats [3]; [11]) of 9.4 ± 0.4 mg/100 ml, an Alkaline phosphatase (female Wistar rats [3]; [12]) of 202.4 ± 44.8 u/100 ml and an Osteocalcin (female Wistar rats [3]; [12]) of 4.01 ± 0.25 ng/100 ml. The Serum calcium (female Wistar rats [3]; [12]) was 9.8 ± 0.3 mg/100 ml and the “influence on bone metabolism of rats compared with sCT group (in words)” value (female Wistar rats [3]; high dose group, 6th and 12th weeks of administration) was “substantially equivalent to the positive contrast sCT group”.

In the case of “[D-Ala^1,Cys^7,D-Ala^30]sCT [Compound 1]”, the “Activity (calcium-reducing activity)” value (rats [1]) is reported as 5202 IU/mg.

For “[Val^1, Ala^7, Cys^16(mPEG5000-MAL), Des-19-22, Ala^30]sCT [Compound 14]”, the “Activity (calcium-reducing activity)” value (rats [1]) was 987 IU/mg.

In the case of “[Val^1, Ala^7, Cys^19(mPEG5000-MAL),Des-20-22, Ala^30]sCT [Compound 21]”, the “Activity (calcium-reducing activity)” value (rats [1]) is reported as 1208 IU/mg.

With “[Val^1, Cys^7(mPEG5000-MAL),Des-19-22, Ala^30]sCT [Compound 16]” the “Activity (calcium-reducing activity)” value (rats [1]) was 717 IU/mg.

For “[Val^1,Ala^7,Cys^16,Ala^30,Des-19-22]sCT [Compound 3]”, the “Activity (calcium-reducing activity)” value (rats [1]) was 3394 IU/mg.

In the case of “[Val^1,Ala^7,Cys^19(mPEG5000-MAL),Des-20-21, Ala^30]sCT [Compound 22]”, the “Activity (calcium-reducing activity)” value (rats [1]) is reported as 1707 IU/mg.

With “[Val^1,Ala^7,Cys^19,Ala^30,Des-20-21]sCT [Compound 11]” the “Activity (calcium-reducing activity)” value (rats [1]) was 379 IU/mg.

With “[Val^1,Ala^7,Cys^19,Ala^30,Des-20-22]sCT [Compound 10]” the “Activity (calcium-reducing activity)” value (rats [1]) was 892 IU/mg.

For “[Val^1,Ala^7,Gln^11,18,Cys^16(mPEG5000-MAL),Des-19-22,Ala^30]sCT [Compound 15]”, the “Activity (calcium-reducing activity)” value (rats [1]) was 301 IU/mg.

For “[Val^1,Ala^7,Gln^11,18,Cys^16,Ala^30,Des-19-22]sCT [Compound 4]”, the “Activity (calcium-reducing activity)” value (rats [1]) was 807 IU/mg.

In the case of “[Val^1,Cys^7(mPEG5000-MAL), Gln^11,18,Des-19-22,Ala^30]sCT [Compound 20]”, the “Activity (calcium-reducing activity)” value (rats [1]) is reported as 1265 IU/mg.

In the case of “[Val^1,Cys^7(mPEG5000-MAL), Gln^11,Des-19-22, Ala^30]sCT [Compound 19]”, the “Activity (calcium-reducing activity)” value (rats [1]) is reported as 815 IU/mg.

For “[Val^1,Cys^7(mPEG5000-MAL), Gln^18,Des-19-22, Ala^30]sCT [Compound 18]”, the “Activity (calcium-reducing activity)” value (rats [1]) was 763 IU/mg.

In the case of “[Val^1,Cys^7(mPEG5000-MAL),Des-19,Ala^30]sCT [Compound 13]”, the “Activity (calcium-reducing activity)” value (rats [1]) is reported as 438 IU/mg.

In the case of “[Val^1,Cys^7(mPEG5000-MAL),Des-19,Ala^30]sCT [Compound 17]”, the “Activity (calcium-reducing activity)” value (rats [1]) is reported as 1921 IU/mg.

For “[Val^1,Cys^7,Ala^30,Des-19]sCT [Compound 6]”, the “Activity (calcium-reducing activity)” value (rats [1]) was 4347 IU/mg.

For “[Val^1,Cys^7,Des-19,Ala^30]sCT [Compound 2]”, the “Activity (calcium-reducing activity)” value (rats [1]) was 1136 IU/mg.

For “[Val^1,Cys^7,Des-19-22,Ala^30]sCT [Compound 5]”, the “Activity (calcium-reducing activity)” value (rats [1]) was 67 IU/mg.

With “[Val^1,Cys^7,Gln^11,18,Ala^30,Des-19-22]sCT [Compound 9]” the “Activity (calcium-reducing activity)” value (rats [1]) was 920 IU/mg.

In the case of “[Val^1,Cys^7,Gln^11,Ala^30,Des-19-22]sCT [Compound 8]”, the “Activity (calcium-reducing activity)” value (rats [1]) is reported as 344 IU/mg.

With “[Val^1,Cys^7,Gln^18,Ala^30,Des-19-22]sCT [Compound 7]” the “Activity (calcium-reducing activity)” value (rats [1]) was 233 IU/mg.

In the case of salmon calcitonin [reference compound], the “reference activity of salmon calcitonin” value (rats [4]) is given as 4500 IU/mg, the metabolic half life [5] is given as 4.8 min and the “Bone density, femur” value (female Wistar rats [2]; 0.036 μg/kg s.c. twice/week) is given as 0.242 ± 0.027 g/cm^2. The “Bone density, lumbar vertebrae” value (female Wistar rats [2]; 0.036 μg/kg s.c. twice/week) was 0.181 ± 0.013 g/cm^2, the “Bone density, tibia” value (female Wistar rats [2]; 0.036 μg/kg s.c. twice/week) was 0.247 ± 0.127 g/cm^2 and the “influence on bone density of lumbar vertebrae (in words)” value (female Wistar rats [2]) was “increased the bone density of lumbar vertebrae”. It also gave an Alkaline phosphatase (female Wistar rats [3]; [13]) of 179.8 ± 31.4 u/100 ml, an Osteocalcin (female Wistar rats [3]; [13]) of 3.90 ± 1.1 ng/100 ml and a Serum calcium (female Wistar rats [3]; [13]) of 9.3 ± 0.2 mg/100 ml. The Alkaline phosphatase (female Wistar rats [3]; [14]) was 200.9 ± 40.1 u/100 ml, the Osteocalcin (female Wistar rats [3]; [14]) was 3.38 ± 0.17 ng/100 ml and the Serum calcium (female Wistar rats [3]; [14]) was 9.3 ± 0.2 mg/100 ml.
